Test results as given in US20080275058A1, “N-Substituted-1H-Quinoline-2,4-Diones, Preparation Method Thereof, And Pharmaceutical Composition Containing The Same” (KOREA RESEARCH INSTITUTE OF CHEMICAL TECHNOLOGY, priority 2005, published 2008).
Like-named read-outs stand apart in the source and are kept apart here.

Tests used:
[1] = molecular target: T1, 5-HT7 (Homo sapiens, UniProt P34969); test: Radioligand binding, 5-HT7 ([3H]LSD); details: Table 4; [3H]LSD 3 nM; read-out: Binding affinity, IC50 (nM) 5-HT7
T1 construct: purchased Euroscreen/BioSignal Packard Inc

[2] = molecular target: T2, Human serotonin 5-HT6 receptor (Homo sapiens, UniProt P50406); test: [3H]LSD binding assay on cloned 5-HT6 receptor membranes; details: for binding affinity at 5-HT6 receptor labeled by [3H]LSD, in words: comment on Table 2
T2 construct: made in house; host or cells: insect Sf21 cells (baculovirus vector BacPAK8)

[3] = molecular target: T3, hD2L (Homo sapiens, UniProt P14416); test: Radioligand binding, dopamine D2 ([3H]spiperone); details: Table 4; [3H]spiperone 1 nM; read-out: Binding affinity, IC50 (nM) D2
T3 construct: purchased BioSignal Packard Inc., Montreal, Canada
In short: (§1)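 Membrane competition binding with [3H]spiperone (1 nM) for hD2L and hD3, or [3H]YM-09151-2 (0.06 nM) for hD4.2, each in receptor-specific Tris-HCl pH 7.4 buffer containing Mg2+/EDTA (D3 and D4 also with K+, Ca2+; D3 with 120 mM NaCl). Compounds were tested at 7-8 concentrations in duplicate, and IC50 was derived by nonlinear regression across three assays.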

[4] = tested on: mice; test: Rotarod deficit in mice; type: in vivo, mouse
Description: (§2) The mouse was placed on a 1 inch diameter knurled plastic rod rotating at 6 rpm (Ugo-Basile, Milano, Italy), and the rotarod deficit (%) was obtained by counting the number of animals fallen from the rotating rod within 1 min [Dunham et al., 1957] at 60, 90 and 120 min after the injection of the compound according to the invention(200, 300 or 400 ? ). […] The compounds of the examples were suspended in 3% Tween 80 solution, and were administered (p.o.) 60 min before the testing.

[5] = Rotarod deficit in mice; type: in vivo, mouse; details: mouse, in vivo, po, unit printed as image, read-out: TD50 (median neurotoxic dose)
Description: as §2

[6] = molecular target: T4, hD4.2 receptor (Homo sapiens, UniProt P21917, DEL265-296); test: Radioligand binding, dopamine D4 ([3H]YM-09151-2); details: Table 4; [3H]YM-09151-2 0.06 nM; read-out: Binding affinity, IC50 (nM) D4
T4 construct: purchased BioSignal Packard Inc., Montreal, Canada
T4 sequence (P21917 with tags, fused parts or gaps DEL265-296): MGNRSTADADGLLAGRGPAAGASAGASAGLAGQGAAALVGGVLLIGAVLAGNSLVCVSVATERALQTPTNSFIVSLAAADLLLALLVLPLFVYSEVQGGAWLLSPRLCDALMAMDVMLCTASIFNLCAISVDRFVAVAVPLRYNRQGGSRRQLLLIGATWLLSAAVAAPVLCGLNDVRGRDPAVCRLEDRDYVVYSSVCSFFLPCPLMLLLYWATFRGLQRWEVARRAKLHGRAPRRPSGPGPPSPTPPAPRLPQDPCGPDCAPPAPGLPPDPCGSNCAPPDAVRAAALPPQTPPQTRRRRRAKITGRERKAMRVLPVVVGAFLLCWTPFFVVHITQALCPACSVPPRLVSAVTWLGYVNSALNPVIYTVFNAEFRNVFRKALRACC
In short: as §1

[7] = molecular target: T5, 5-HT1a (Homo sapiens, UniProt P08908); test: Radioligand binding, 5-HT1a ([3H]8-OH-DPAT); details: Table 4; [3H]8-OH-DPAT 0.5 nM; read-out: Binding affinity, IC50 (nM) 5-HT1a
T5 construct: purchased Euroscreen/BioSignal Packard Inc
T5 sequence (P08908 1-422): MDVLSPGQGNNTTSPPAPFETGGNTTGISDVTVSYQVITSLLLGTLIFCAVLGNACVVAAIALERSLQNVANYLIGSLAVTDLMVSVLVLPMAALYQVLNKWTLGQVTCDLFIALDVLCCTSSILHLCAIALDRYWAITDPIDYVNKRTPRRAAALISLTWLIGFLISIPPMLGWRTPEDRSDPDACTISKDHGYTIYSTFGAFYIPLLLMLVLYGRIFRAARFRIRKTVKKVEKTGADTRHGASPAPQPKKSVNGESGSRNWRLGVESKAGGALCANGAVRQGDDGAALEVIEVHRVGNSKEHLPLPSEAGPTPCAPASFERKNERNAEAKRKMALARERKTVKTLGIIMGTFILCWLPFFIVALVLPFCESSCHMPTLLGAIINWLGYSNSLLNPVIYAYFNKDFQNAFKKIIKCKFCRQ
In short: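 Displacement of the radiolabel is read on purchased receptor membranes. Conditions follow the vendor's standard method.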

[8] = molecular target: T6, 5-HT2a (Homo sapiens, UniProt P28223); test: Radioligand binding, 5-HT2a ([3H]Ketanserin); details: Table 4; [3H]Ketanserin 1 nM; read-out: Binding affinity, IC50 (nM) 5-HT2a
T6 construct: purchased Euroscreen/BioSignal Packard Inc

[9] = molecular target: T7, hD3 (Homo sapiens, UniProt P35462); test: Radioligand binding, dopamine D3 ([3H]spiperone); details: Table 4; [3H]spiperone 1 nM; read-out: Binding affinity, IC50 (nM) D3
T7 construct: purchased BioSignal Packard Inc., Montreal, Canada
In short: as §1

[10] = molecular target: T8, 5-HT2c (Homo sapiens, UniProt P28335); test: Radioligand binding, 5-HT2c ([3H]Mesulergine); details: Table 4; [3H]Mesulergine 1 nM; read-out: Binding affinity, IC50 (nM) 5-HT2c
T8 construct: purchased Euroscreen/BioSignal Packard Inc
T8 sequence (P28335 33-458): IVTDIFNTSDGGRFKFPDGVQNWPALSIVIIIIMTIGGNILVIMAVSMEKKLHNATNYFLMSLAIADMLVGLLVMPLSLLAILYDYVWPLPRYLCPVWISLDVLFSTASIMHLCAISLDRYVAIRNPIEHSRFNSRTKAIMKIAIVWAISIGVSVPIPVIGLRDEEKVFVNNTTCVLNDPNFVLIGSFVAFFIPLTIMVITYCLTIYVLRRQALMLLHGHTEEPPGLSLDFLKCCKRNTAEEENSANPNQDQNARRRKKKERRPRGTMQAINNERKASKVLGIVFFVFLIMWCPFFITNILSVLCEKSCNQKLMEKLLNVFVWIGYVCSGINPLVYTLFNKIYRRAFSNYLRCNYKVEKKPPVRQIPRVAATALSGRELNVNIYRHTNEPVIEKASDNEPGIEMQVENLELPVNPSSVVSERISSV

[11] = molecular target: D1 (Homo sapiens, UniProt P21728); test: Radioligand binding, dopamine D1; details: Table 4; read-out: Binding affinity, IC50 (nM) D1
[12] = Table 2, 1.87 nM [3H]LSD, 37 C, 60 min, read-out: IC50 (nM), binding affinity to the 5-HT6 receptor
[13] = Table 4, read-out: Binding affinity, IC50 (nM) 5-HT6

T3 sequence (P14416 whole entry): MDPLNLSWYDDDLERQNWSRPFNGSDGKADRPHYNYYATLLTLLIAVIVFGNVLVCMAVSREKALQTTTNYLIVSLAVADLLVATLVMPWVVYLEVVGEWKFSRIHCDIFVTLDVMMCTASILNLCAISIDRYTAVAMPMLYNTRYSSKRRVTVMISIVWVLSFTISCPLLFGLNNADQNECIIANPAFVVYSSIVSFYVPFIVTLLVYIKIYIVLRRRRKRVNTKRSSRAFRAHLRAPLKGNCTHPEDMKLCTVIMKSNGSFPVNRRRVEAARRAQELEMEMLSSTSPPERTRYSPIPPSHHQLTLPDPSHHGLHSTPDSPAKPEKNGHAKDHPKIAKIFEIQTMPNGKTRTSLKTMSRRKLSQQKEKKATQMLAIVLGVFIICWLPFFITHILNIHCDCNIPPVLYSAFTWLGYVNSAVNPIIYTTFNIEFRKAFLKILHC
T1 sequence (P34969 whole entry): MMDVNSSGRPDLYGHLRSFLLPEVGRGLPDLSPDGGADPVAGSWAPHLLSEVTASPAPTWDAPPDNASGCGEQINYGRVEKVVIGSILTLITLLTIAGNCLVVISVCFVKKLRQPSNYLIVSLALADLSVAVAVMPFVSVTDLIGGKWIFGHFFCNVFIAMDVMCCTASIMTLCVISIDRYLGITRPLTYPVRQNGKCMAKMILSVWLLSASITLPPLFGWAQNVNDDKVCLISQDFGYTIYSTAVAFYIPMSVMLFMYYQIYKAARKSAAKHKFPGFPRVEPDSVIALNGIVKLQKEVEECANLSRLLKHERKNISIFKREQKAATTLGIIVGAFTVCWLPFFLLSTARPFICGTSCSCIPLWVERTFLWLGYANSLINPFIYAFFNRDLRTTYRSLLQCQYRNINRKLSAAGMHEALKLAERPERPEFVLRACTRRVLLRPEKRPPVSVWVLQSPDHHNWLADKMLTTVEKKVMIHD
T6 sequence (P28223 whole entry): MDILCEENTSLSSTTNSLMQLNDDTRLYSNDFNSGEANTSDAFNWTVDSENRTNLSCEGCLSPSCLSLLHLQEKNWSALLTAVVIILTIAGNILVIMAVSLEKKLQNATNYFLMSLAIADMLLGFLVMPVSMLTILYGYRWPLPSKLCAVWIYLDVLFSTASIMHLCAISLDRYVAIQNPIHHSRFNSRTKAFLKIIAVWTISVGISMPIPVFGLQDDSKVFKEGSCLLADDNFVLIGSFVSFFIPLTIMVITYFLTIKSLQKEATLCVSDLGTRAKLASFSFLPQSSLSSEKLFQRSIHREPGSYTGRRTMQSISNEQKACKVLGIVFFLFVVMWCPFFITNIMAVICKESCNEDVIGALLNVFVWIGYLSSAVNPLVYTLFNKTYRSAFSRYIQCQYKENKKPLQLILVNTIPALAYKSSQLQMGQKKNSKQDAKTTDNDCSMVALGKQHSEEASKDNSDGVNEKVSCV
T2 sequence (P50406 whole entry): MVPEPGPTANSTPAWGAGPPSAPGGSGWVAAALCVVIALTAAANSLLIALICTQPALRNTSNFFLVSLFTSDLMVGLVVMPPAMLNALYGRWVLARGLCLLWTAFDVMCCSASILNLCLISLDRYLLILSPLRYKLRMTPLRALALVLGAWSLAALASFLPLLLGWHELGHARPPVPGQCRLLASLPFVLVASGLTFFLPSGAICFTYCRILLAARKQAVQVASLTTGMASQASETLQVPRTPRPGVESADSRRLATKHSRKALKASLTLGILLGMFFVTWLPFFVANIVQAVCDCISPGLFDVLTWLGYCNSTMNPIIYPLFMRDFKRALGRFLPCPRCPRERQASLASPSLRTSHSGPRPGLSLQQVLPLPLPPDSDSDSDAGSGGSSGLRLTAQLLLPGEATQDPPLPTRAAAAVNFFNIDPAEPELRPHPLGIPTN
D1, sequence (P21728 whole entry): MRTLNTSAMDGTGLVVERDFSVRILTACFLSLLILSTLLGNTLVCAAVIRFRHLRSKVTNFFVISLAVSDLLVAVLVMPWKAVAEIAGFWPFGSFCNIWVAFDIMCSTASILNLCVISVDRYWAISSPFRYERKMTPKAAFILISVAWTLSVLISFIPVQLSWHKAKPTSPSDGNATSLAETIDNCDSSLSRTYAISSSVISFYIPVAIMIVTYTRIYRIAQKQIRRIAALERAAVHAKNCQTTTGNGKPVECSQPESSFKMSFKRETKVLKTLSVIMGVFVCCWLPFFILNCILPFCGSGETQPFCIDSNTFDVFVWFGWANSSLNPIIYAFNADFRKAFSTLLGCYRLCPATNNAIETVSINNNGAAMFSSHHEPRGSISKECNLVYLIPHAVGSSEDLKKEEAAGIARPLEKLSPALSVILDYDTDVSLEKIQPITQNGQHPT
T7 sequence (P35462 whole entry): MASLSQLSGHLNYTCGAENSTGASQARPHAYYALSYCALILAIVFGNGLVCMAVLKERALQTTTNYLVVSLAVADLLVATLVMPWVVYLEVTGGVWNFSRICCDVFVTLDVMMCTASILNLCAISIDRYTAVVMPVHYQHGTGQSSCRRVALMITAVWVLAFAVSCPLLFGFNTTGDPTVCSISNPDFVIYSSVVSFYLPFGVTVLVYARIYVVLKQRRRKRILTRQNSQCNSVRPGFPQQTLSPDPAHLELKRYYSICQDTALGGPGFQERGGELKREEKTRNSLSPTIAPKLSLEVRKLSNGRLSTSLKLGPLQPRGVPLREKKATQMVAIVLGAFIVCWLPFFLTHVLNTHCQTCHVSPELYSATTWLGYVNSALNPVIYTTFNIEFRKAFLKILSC

## COc1ccc(C2(C)C(=O)c3c(N4CCNCC4)cc(Cl)cc3N(Cc3cccc(Br)c3)C2=O)cc1 (centres unmarked) [Example 33, 1-(3-Bromo-benzyl)-7-chloro-3-(4-methoxy-phenyl)-3-methyl-5-piperazin-1-yl-1H-quinoline-2,4-dione]
[1]
  IC50: > 10000 nM
other
  melting point: 113 to 114 °C
[2]; [12]
  IC50: 1.8 nM
[2]; [13]
  IC50: 1.8 nM
[2]
  binding affinity at 5-HT6 receptor labeled by [3H]LSD, in words: significant affinities
[3]
  IC50: > 1000 nM
[4]; 200 p.o. (dose unit not given)
  Rotarod deficit (%): 0%
[4]; 300 p.o. (dose unit not given)
  Rotarod deficit (%): 0%
[4]; 400 p.o. (dose unit not given)
  Rotarod deficit (%): 0%
[5]
  TD50 at 120 min: > 400 mg/kg
[6]
  IC50: > 10000 nM
[7]
  IC50: > 1000 nM
[8]
  IC50: > 1000 nM
[9]
  IC50: > 1000 nM
[10]
  IC50: > 1000 nM
[11]
  IC50: > 1000 nM

## COc1ccc(C2(C)C(=O)c3c(N4CCN(C)CC4)cc(Cl)cc3N(Cc3cccc(N)c3)C2=O)cc1 (centres unmarked) [Example 9, 1-(3-Amino-benzyl)-7-chloro-3-(4-methoxy-phenyl)-3-methyl-5-(4-methyl-piperazin-1-yl)-1H-quinoline-2,4-dione]
[1]
  IC50: > 10000 nM
other
  melting point: 90 to 93 °C
[2]; [12]
  IC50: 5.2 nM
[2]; [13]
  IC50: 5.2 nM
[3]
  IC50: > 10000 nM
[4]; 200 p.o. (dose unit not given)
  Rotarod deficit (%): 0%
[4]; 300 p.o. (dose unit not given)
  Rotarod deficit (%): 0%
[4]; 400 p.o. (dose unit not given)
  Rotarod deficit (%): 0%
[5]
  TD50 at 120 min: > 400 mg/kg
[6]
  IC50: > 10000 nM
[7]
  IC50: > 10000 nM
[8]
  IC50: > 10000 nM
[9]
  IC50: 821 nM
[10]
  IC50: > 10000 nM
[11]
  IC50: > 10000 nM

## CC1(c2ccc(I)cc2)C(=O)c2c(N3CCNCC3)cc(Cl)cc2N(Cc2ccccc2)C1=O (centres unmarked) [Example 21, 1-Benzyl-7-chloro-3-(4-iodo-phenyl)-3-methyl-5-piperazin-1-yl-1H-quinoline-2,4-dione]
[1]
  IC50: 3340 nM
other
  melting point: 176 to 177 °C
[2]; [12]
  IC50: 6.9 nM
[2]; [13]
  IC50: 6.9 nM
[3]
  IC50: 1640 nM
[4]; 200 p.o. (dose unit not given)
  Rotarod deficit (%): 0%
[4]; 300 p.o. (dose unit not given)
  Rotarod deficit (%): 0%
[4]; 400 p.o. (dose unit not given)
  Rotarod deficit (%): 0%
[5]
  TD50 at 120 min: > 400 mg/kg
[6]
  IC50: 5870 nM
[7]
  IC50: 468 nM
[8]
  IC50: 553 nM
[9]
  IC50: 1050 nM
[10]
  IC50: 1810 nM
[11]
  IC50: 1620 nM

## COc1ccc(C2(C)C(=O)c3c(N4CCN(C)CC4)cc(Cl)cc3N(Cc3ccccc3)C2=O)cc1 (centres unmarked) [Example 1, 1-Benzyl-7-chloro-3-(4-methoxy-phenyl)-3-methyl-5-(4-methyl-piperazin-1yl)-1H-quinoline-2,4-dione]
[1]
  IC50: 7490 nM
other
  melting point: 66 to 67 °C
[2]; [12]
  IC50: 1.9 nM
[2]; [13]
  IC50: 1.9 nM
[2]
  binding affinity at 5-HT6 receptor labeled by [3H]LSD, in words: significant affinities
[3]
  IC50: > 10000 nM
[4]; 200 p.o. (dose unit not given)
  Rotarod deficit (%): 0%
[4]; 300 p.o. (dose unit not given)
  Rotarod deficit (%): 0%
[4]; 400 p.o. (dose unit not given)
  Rotarod deficit (%): 0%
[5]
  TD50 at 120 min: > 400 mg/kg
[6]
  IC50: 8020 nM
[7]
  IC50: 4410 nM
[8]
  IC50: 1120 nM
[9]
  IC50: 2280 nM
[10]
  IC50: > 10000 nM
[11]
  IC50: 174 nM

## CCNc1ccc([C@]2(C)C(=O)c3c(N4CCN(C)CC4)cc(Cl)cc3N(Cc3ccccc3)C2=O)cc1 (stereo in doubt) [Example 6, 1-Benzyl-7-chloro-3-(4-ethylamino-phenyl)-3-methyl-5-(4-methyl-piperazin-1-yl)-1H-quinoline-2,4-dione]
[1]
  IC50: > 1000 nM
other
  melting point: 153 to 155 °C
[2]; [12]
  IC50: 3.4 nM
[2]; [13]
  IC50: 3.4 nM
[3]
  IC50: > 1000 nM
[4]; 200 p.o. (dose unit not given)
  Rotarod deficit (%): 0%
[4]; 300 p.o. (dose unit not given)
  Rotarod deficit (%): 0%
[4]; 400 p.o. (dose unit not given)
  Rotarod deficit (%): 0%
[5]
  TD50 at 120 min: > 400 mg/kg
[6]
  IC50: > 10000 nM
[7]
  IC50: > 10000 nM
[8]
  IC50: > 1000 nM
[9]
  IC50: 981 nM
[10]
  IC50: > 1000 nM
[11]
  IC50: > 1000 nM

## COc1ccc(C2(C)C(=O)c3c(N4CCNCC4)cc(Cl)cc3N(Cc3ccc4ccccc4c3)C2=O)cc1 (centres unmarked) [Example 39, 7-Chloro-3-(4-methoxy-phenyl)-3-methyl-1-naphthalen-2-ylmethyl-5-piperazin-1-yl-1H-quinoline-2,4-dione]
[1]
  IC50: > 1000 nM
other
  melting point: 169 to 170 °C
[2]; [12]
  IC50: 4.7 nM
[2]; [13]
  IC50: 4.7 nM
[3]
  IC50: > 1000 nM
[4]; 200 p.o. (dose unit not given)
  Rotarod deficit (%): 0%
[4]; 300 p.o. (dose unit not given)
  Rotarod deficit (%): 0%
[4]; 400 p.o. (dose unit not given)
  Rotarod deficit (%): 0%
[5]
  TD50 at 120 min: > 400 mg/kg
[6]
  IC50: > 10000 nM
[7]
  IC50: > 10000 nM
[8]
  IC50: > 1000 nM
[9]
  IC50: > 1000 nM
[10]
  IC50: > 1000 nM
[11]
  IC50: > 1000 nM
